Patent publication US8613909B2, “Cinnamic acid-based oligomers and uses thereof” (Virginia Commonwealth University, priority 2008, dated 2013)

Tests used:
[1] = Chemical antioxidant assay (ABTS oxidation by metmyoglobin/hydrogen peroxide); settings: room temperature, absorbance at 750 nm in first 5 min; read-out: AOC50 (half maximal anti-oxidative concentration)
Protocol: Anti-oxidative activity of the oligomers was determined at room temperature using the chemical antioxidant assay kit (Cayman Chemical Co.) in a 96-well plate format, in accord with the manufacturer's protocol. The kit has been validated in-house with respect to assay precision and accuracy. Oxidative reaction of ABTS (2,2′-azino-di-[3-ethylbenzthiazoline sulphonate]) to its oxidative product, ABTS•+, by metmyoglobin and 84 μM hydrogen peroxide were monitored for 20 min in the presence of each oligomer at 0-100 μM. The absorbance at 750 nm due to ABTS•+ generation was measured using the microplate reader. Initial linear rate of oxidation was assessed with the absorbance produced for the first 5 min. The half maximal anti-oxidative concentration (AOC50) values were derived, assuming the sigmoidal concentration-dependence of the initial oxidation rate in the logistic function equation.

[2] = system: NFκB in Calu-3 human bronchial epithelial cells; experiment: TNFα-dependent NFκB-Luc reporter repression in Calu-3 cells; type: cell-based
Protocol: Anti-inflammatory activity of each of the oligomers was determined using Calu-3 human bronchial epithelial cells (American Type Culture Collection; ATCC), from repression of the inflammatory transcription factor NFκB. The Calu-3 cells of 0.5×10^6 cells/cm^2 in 12-well plates were cultured for 24 h and then, transfected with 0.6 μg luciferase (Luc)-tagged reporter plasmid construct of NFκB (pNFκB-Luc) for another 24 h using the Effectene reagents (Qiagen) under the protocol optimized in-house. On day 3, the transfected Calu-3 cells were stimulated for 6 h with 30 ng/ml human tumor necrosis factor α (TNF α; BD Biosciences) in the presence of each oligomer at 0-100 μM in culture. Then, the Calu-3 cells were lysed, after which the Luc activities were measured using 20/20n luminometer (Turner BioSystems). The cellular NFκB-Luc activity was expressed in relative light unit/mg protein, normalized by the total protein measured by the BCA assay (Pierce Biotechnology). A fold-induction of such a normalized NFκB-Luc activity relative to the transfection control was derived for treatment group comparison; this accommodated inter-transfection efficiency differences.

EC50 [1] | SMILES | repression of NFκB-Luc activity ([2]; by 100 μM) | repression of TNFα-induced NFκB-Luc activity ([2]; 5 μM)
16.8 ± 1.6 µM | O=C(O)/C=C/c1ccc(O)c(O)c1 [CA, caffeic acid] | no appreciable repression | 
 | CCC(=O)O[C@]1(C(=O)SCF)[C@H](C)C[C@H]2[C@@H]3C[C@H](F)C4=CC(=O)C=C[C@]4(C)[C@@]3(F)[C@@H](O)C[C@@]21C [FP, fluticasone propionate] |  | 100%
